In patent US6632793B1, “Immunological activity for a peptide of the limulus anti-LPS factor” (Centro de Ingenieria Genetica y Biotecnologia, priority 1997, dated 2003):
Where a SMILES comes first, the peptide text is derived from it.

Columns and labels:
[1] = system: Mengo virus on cell line Hep-2; test: Antiviral effect: inhibition of the cytopathic effect of Mengo virus on cell line Hep-2; format: cell-based; settings: for Antiviral effect, 1 / Antiviral effect, 2 / Antiviral effect, 3 / Antiviral effect, Mean: 24 h pre-incubation; for Antiviral effect, 1: experiment 1; for Antiviral effect, 2: experiment 2; for Antiviral effect, 3: experiment 3; for Antiviral effect, Mean: mean of 3
Method: (§1) Then the cells were washed with saline solution and infected with […] of Mengo virus, provide by Institute of Molecular Biology, University of Zurich, which is multiplied in the cell line L929 murine fibroblasts. 18 h later degree of cell destruction was measured by fixation and staining, generally with crystal violet, for reading of cytophatic effect was used a photometer Ultramicroanalytical System (SUMA). A computer program in Pascal UCSD language for the microcomputer system was developed for all calculations and corrections (Ferrero et al., 1994, Biotecnologia Aplicada. Vol. 1:). In this case serial dilution's of human γ-IFN 70 000 IU/ml (MRI, Freeze-dried Reference Human Recombinant Gamma Interferon) was used as standard in order to define unit of antiviral activity. For this reason the antiviral protection shown by the peptide is related to International Units of γ-IFN (Ul/ml). As a negative control were used different peptides from proteins that bind endotoxin. LPS at 10 ng/ml was used as a positively control because is well known that it induced the production of IFNs (Manthey et al., 1994, J. Immunology. Vol. 153: 2653-2663). One unit of antiviral activity is define as the quantity of IFN able to produce an 50% inhibition of the viral replication.

[2] = system: bovine enterovirus on cell line MDBK; test: Antiviral effect: inhibition of the cytopathic effect of bovine enterovirus on cell line MDBK; format: cell-based; settings: 10 μM, 20 μM and 40 μM; FIG. 5
Method: Determination of the antiviral activity was estimate by means of the inhibition of the cytopathic effect produced by a virus on cell line MDBK, essentially as is described in the example 1. The cells used in this approach were MDBK a kidney normal bovine cells line [ATCC No. 6071], which are infected with […] of bovine enterovirus. Increasing quantities of LALF peptide were used in order to induced protection in the-cells: 10 μM, 20 μM and 40 μM. In this case serial dilution's of human α-IFN 70 000 IU/ml (MRI, Freeze-dried Reference Human Recombinant Alpha Interferon) was used as standard in order to define unit of antiviral activity. One unit of antiviral activity is defining as the quantity of IFN able to produce a 50% inhibition of the viral replication.
The cells were treated with increasing quantities of peptide during 18 hours. Afterwards, the cells were challenged with a bovine enterovirus. Antiviral activity is referred as U/ml α-IFN.

[3] = system: human mononuclear cells; test: Antiviral effect on Hep-2 cells of supernatant from human mononuclear cells stimulated with peptide; format: cell-based; settings: for Antiviral effect of supernatant, 1: supernatant on Hep-2, experiment 1; for Antiviral effect of supernatant, 2: supernatant on Hep-2, experiment 2; for Antiviral effect of supernatant, 3: supernatant on Hep-2, experiment 3; for Antiviral effect of supernatant, Mean: supernatant on Hep-2, mean of 3
Method: as §1
Venous blood was obtained from healthy volunteers and Ficoll-Hypaque centrifugation, fractionated mononuclear cells. The mononuclear cells were washed and resuspended in endotoxin-free RPMI-1640 culture medium supplemented with 10% fetal calf serum. Concentration of 2×10^6 cells/ml were aliquoted into 24-well microtiter plates (Nunc, Denmark). The cells were then incubated with 14 and 28 μg/ml of different peptides: Limulus anti-LPS factor31-52 (LALF), Lipopolysaccharide Binding Protein86-99 (LBP) and 18 kDa Cationic Antimicrobial Protein108-128 (CAP-18), at 37° C. for 18 hours in 5% CO2. The cells were centrifuged at 3000 rpm for 5 min and then serial dilutions of supematants were assays for antiviral activity using the procedures described in the example 2.

[4] = system: NO production in peritoneal macrophages; test: NO2- secretion (Greiss) in LPS-activated peritoneal macrophages pre-incubated with peptide; format: cell-based, Balb/c mice; settings: 5 μM pre-incubation 18 h, then LPS 1 μg/ml 72 h; FIG. 7
Method: Peritoneal elicited cells were obtained from Balb/c mice (CENPALAB, Havana, Cuba). Primary mouse macrophages was collected from the peritoneal cavity 4 days after intraperitoneal injection with 1 ml of 4% Brewer's thioglicollate broth. Cell were maintained in RPMI 1640 supplemented with 10% heat-inactivated fetal bovine serum, 2 mM L-glutamine, 200 units/ml penicillin, and 200 μg/ml streptomycin at 37° C. in 5% CO2/[…].
Assay for Secretion of NO2-(Jin, F^29, Nathan, C, Radzioch, 0, and Ding, A. Cell, 1997, 88: 417-426). Cells were plated in 96-well plates at 2×10^6 cells /ml in 200 μl of medium and incubated at 37° C. for 2 h, then non-adherent cells were removed by repeated washing with PBS. […] Cell viability was assessed by mitochondrial-dependent reduction of MTT to formazan (Szabo^30, c, Mitchell, J A, Gross, S S, Thiemermann, C, and Vane, JR. J. Pharm. Exp. Therap., 1992, 265: 674-80). […] Absorbance at 540 nm was recorded in a microplate reader (SUMA) with sodium nitrite as standards (Green^28, L C, Wagner, D A, Glogowski, J, et al. Anal Biochem 1982; 126: 131-8). […]
FIG. 7: Regulatory effect of LALF derived-peptide on NO production in stimulated peritoneal macrophages. […] Levels of NO were measured in the cells cultured supernatants using the Greiss method.

[5] = mononuclear cells stimulated with 14 μg/ml for 18 h
[6] = mononuclear cells stimulated with 28 μg/ml for 18 h

CC[C@H](C)[C@H](NC(=O)[C@H](CCCNC(=N)N)NC(=O)[C@H](Cc1ccc(O)cc1)NC(=O)[C@H](Cc1c[nH]cn1)NC(=O)[C@@H](N)CS)C(=O)N[C@@H](CCCCN)C(=O)N1CCC[C@H]1C(=O)N[C@H](C(=O)N[C@@H](Cc1ccccc1)C(=O)N[C@@H](CCCNC(=N)N)C(=O)N[C@@H](CCCNC(=N)N)C(=O)N[C@@H](CC(C)C)C(=O)N[C@@H](CCCCN)C(=O)N[C@@H](Cc1c[nH]c2ccccc12)C(=O)N[C@@H](CCCCN)C(=O)N[C@@H](Cc1ccc(O)cc1)C(=O)N[C@@H](CCCCN)C(=O)NCC(=O)N[C@@H](CCCCN)C(=O)N[C@@H](Cc1ccccc1)C(=O)N[C@@H](Cc1c[nH]c2ccccc12)C(=O)N[C@@H](CS)C(=O)O)[C@@H](C)O [LALF] (H-CHYRIKPTFRRLKWKYKGKFWC-OH)
Induction of an antiviral state in Hep-2 cells (in words) ([1]; 14 and 28 μg/ml): able to induce an antiviral state | Antiviral effect, 1 ([1]; Hep-2, 14 μg/ml): 35 IU/ml γ-IFN | Antiviral effect, 2 ([1]; Hep-2, 14 μg/ml): 31.7 IU/ml γ-IFN | Antiviral effect, 3 ([1]; Hep-2, 14 μg/ml): 22 IU/ml γ-IFN | Antiviral effect, Mean ([1]; Hep-2, 14 μg/ml): 29.5 IU/ml γ-IFN | Antiviral effect, 1 ([1]; Hep-2, 28 μg/ml): 28.7 IU/ml γ-IFN | Antiviral effect, 2 ([1]; Hep-2, 28 μg/ml): 27 IU/ml γ-IFN | Antiviral effect, 3 ([1]; Hep-2, 28 μg/ml): 31.4 IU/ml γ-IFN | Antiviral effect, Mean ([1]; Hep-2, 28 μg/ml): 28.3 IU/ml γ-IFN | Protection of cell line MDBK against bovine enterovirus (in words) [2]: able to induce protection in the cell line MDBK in a doses dependent manner | Release of protective mediator by human peripheral blood mononuclear cells (in words) ([3]; 14 and 28 μg/ml, 18 h): induce them to release certain mediator capable of conferring protection to the Hep-2 cells against viral infections | Antiviral effect of supernatant, 1 [3, 5]: 28 IU/ml γ-IFN | Antiviral effect of supernatant, 2 [3, 5]: 27.6 IU/ml γ-IFN | Antiviral effect of supernatant, 3 [3, 5]: 20.4 IU/ml γ-IFN | Antiviral effect of supernatant, Mean [3, 5]: 25.3 IU/ml γ-IFN | Antiviral effect of supernatant, 1 [3, 6]: 28.4 IU/ml γ-IFN | Antiviral effect of supernatant, 2 [3, 6]: 28 IU/ml γ-IFN | Antiviral effect of supernatant, 3 [3, 6]: 20 IU/ml γ-IFN | Antiviral effect of supernatant, Mean [3, 6]: 25.4 IU/ml γ-IFN | NO production in LPS-activated macrophages (in words) [4]: up regulated
